Publication PMC9921301, “Design, Synthesis, and Antiproliferative Activity of New 5-Chloro-indole-2-carboxylate and Pyrrolo[3,4-b]indol-3-one Derivatives as Potent Inhibitors of EGFR^T790M/BRAF^V600E Pathways” (Molecules, 2023)
Like-named read-outs stand apart in the source and are kept apart here.

Tests used:
[1] = Cell viability assay (MTT) on normal mammary epithelial cells; type: cell-based; settings: human, MCF-10A normal mammary gland epithelial cells, four days of incubation
Method: The viability test was performed on a normal human mammary gland epithelial cell line (MCF-10A). The MTT test was used to assess the viability of compounds 3a–e, 4a–c, and 5a–c.
The MTT assay was used to determine how the synthesized compounds affected the viability of mammary epithelial cells (MCF-10A). See Appendix SA (Supplementary Materials). […]
4.2. Biological evaluation
4.2.1. Cytotoxic activity using MTT Assay and evaluation of IC50
MTT assay was performed to investigate the effect of the synthesized compounds on mammary epithelial cells (MCF-10A). The cells were propagated in medium consisting of Ham's F-12 medium/ Dulbecco's modified Eagle's medium (DMEM) (1:1) supplemented with 10% foetal calf serum, 2 mM glutamine, insulin (10 μg/mL), hydrocortisone (500 ng/mL) and epidermal growth factor (20 ng/mL). Trypsin ethylenediamine tetra acetic acid (EDTA) was used to passage the cells after every 2-3 days. 96-well flat-bottomed cell culture plates were used to seed the cells at a density of 10^4 cells mL-1. The medium was aspirated from all the wells of culture plates after 24 h followed by the addition of synthesized compounds (in 200 μL medium to yield a final concentration of 0.1% (v/v) dimethylsulfoxide) into individual wells of the plates.
Four wells were designated to a single compound. The plates were allowed to incubate at 37°C for 96 h. Afterwards, the medium was aspirated and 3-[4,5-dimethylthiazol-2-yl]-2,5-diphenyltetrazolium bromide (MTT) (0.4 mg/mL) in medium was added to each well and subsequently incubated for 3 h. The medium was aspirated and 150 μL dimethyl sulfoxide (DMSO) was added to each well. The plates were vortexed followed by the measurement of absorbance at 540 nm on a microplate reader. […]

[2] = test system: A-549 (epithelial cancer cell line); experiment: Antiproliferative assay, A-549; type: cell-based; settings: Homo sapiens, A549; read-out: Antiproliferative Activity IC50 ± SEM A-549
Method: (§1) For ease of manipulation, the average (GI50) versus the four cancer cell lines was used.
(§2) To investigate the antiproliferative potential of 3a–e, 4a–c, and 5a–c, the MTT assay was carried out using various cell lines in accordance with previously reported procedures. See Appendix SA (Supplementary Materials). […]
(§3) ethylenediamine tetra acetic acid (EDTA) was used to passage the cells after every 2-3 days. 96-well flat-bottomed cell culture plates were used to seed the cells at a density of 10^4 cells mL-1. The medium was aspirated from all the wells of culture plates after 24 h followed by the addition of synthesized compounds (in 200 μL medium to yield a final concentration of 0.1% (v/v) dimethylsulfoxide) into individual wells of the plates.
(§4) Four wells were designated to a single compound. The plates were allowed to incubate at 37°C for 96 h. Afterwards, the medium was aspirated and 3-[4,5-dimethylthiazol-2-yl]-2,5-diphenyltetrazolium bromide (MTT) (0.4 mg/mL) in medium was added to each well and subsequently incubated for 3 h. The medium was aspirated and 150 μL dimethyl sulfoxide (DMSO) was added to each well. The plates were vortexed followed by the measurement of absorbance at 540 nm on a microplate reader. The results were presented as inhibition (%) of proliferation in contrast to controls comprising 0.1% 4.2.1.2. Assay for antiproliferative effect
(§5) To explore the antiproliferative potential of compounds propidium iodide fluorescence assay was performed using different cell lines such as Panc-1 (pancreas cancer cell […]
(§6) (epithelial cancer cell line), respectively. To calculate the total nuclear DNA, a fluorescent dye (propidium iodide, PI) is used which can attach to the DNA, thus offering a quick and precise technique. PI cannot pass through the cell membrane and its signal intensity can be considered as directly proportional to quantity of cellular
(§7) DNA. Cells whose cell membranes are damaged or have changed permeability are counted as dead ones. The assay was performed by seeding the cells of different cell lines at a density of 3000-7500 cells/well (in200μl medium) in culture plates followed […]
(§8) The medium was removed; the compounds were added to the plates at 10 μM concentrations (in 0.1% DMSO) in triplicates, followed by incubation for 48h. DMSO (0.1%) was used as control. After incubation, medium was removed followed by the addition of PI (25 μl, 50μg/mL in water/medium) to each well of the plates. At -80 °C, the plates were allowed to freeze for 24 h, followed by thawing at 25 °C. A fluorometer (Polar-Star BMG Tech) was used to record the readings at excitation and emission wavelengths of 530 and 620 nm for each well. The percentage cytotoxicity of compounds was calculated using the following formula:
(§9) Where ATC= Absorbance of treated cells and AC= Absorbance of control. […]
(§10) was used as positive control in the assay. […]

[3] = test system: MCF-7 (breast cancer cell line); experiment: Antiproliferative assay, MCF-7; type: cell-based; settings: Homo sapiens, MCF7; read-out: Antiproliferative Activity IC50 ± SEM MCF-7
Method: as §1, §2, §3, §4, §5, §6, §7, §8, §9, §10

[4] = test system: Panc-1 (pancreatic cancer cell line); experiment: Antiproliferative assay, Panc-1; type: cell-based; settings: Homo sapiens, read-out: Antiproliferative Activity IC50 ± SEM Panc-1
Method: as §1, §2, §3, §4, §5, §6, §7, §8, §9, §10

[5] = test system: HT-29 (colon cancer cell line); experiment: Antiproliferative assay, HT-29; type: cell-based; settings: Homo sapiens, read-out: Antiproliferative Activity IC50 ± SEM HT-29
Method: as §1, §2, §3, §4, §5, §6, §7, §8, §9, §10

[6] = test system: four human cancer cell lines (Panc-1, MCF-7, HT-29, A-549); experiment: Antiproliferative assay, average (GI50) versus the four cancer cell lines; type: cell-based; settings: for GI50: Homo sapiens, average versus the four cancer cell lines; for fold less potent than 3e (GI50): relative to 3e GI50 29 nM
Method: as §1, §2, §3, §4, §5, §6, §7, §8, §9, §10

BRAF^V600E [7] = biological target: T1, BRAF^V600E (Mus musculus, UniProt P28028, V585E); experiment: V600E mutant BRAF kinase assay; type: biochemical; settings: for IC50: read-out: BRAF^V600E Inhibition IC50 ± SEM
T1 construct: Mouse full-length GST-tagged; GST; purchased Invitrogen PV3849
T1 sequence (P28028 whole entry V585E): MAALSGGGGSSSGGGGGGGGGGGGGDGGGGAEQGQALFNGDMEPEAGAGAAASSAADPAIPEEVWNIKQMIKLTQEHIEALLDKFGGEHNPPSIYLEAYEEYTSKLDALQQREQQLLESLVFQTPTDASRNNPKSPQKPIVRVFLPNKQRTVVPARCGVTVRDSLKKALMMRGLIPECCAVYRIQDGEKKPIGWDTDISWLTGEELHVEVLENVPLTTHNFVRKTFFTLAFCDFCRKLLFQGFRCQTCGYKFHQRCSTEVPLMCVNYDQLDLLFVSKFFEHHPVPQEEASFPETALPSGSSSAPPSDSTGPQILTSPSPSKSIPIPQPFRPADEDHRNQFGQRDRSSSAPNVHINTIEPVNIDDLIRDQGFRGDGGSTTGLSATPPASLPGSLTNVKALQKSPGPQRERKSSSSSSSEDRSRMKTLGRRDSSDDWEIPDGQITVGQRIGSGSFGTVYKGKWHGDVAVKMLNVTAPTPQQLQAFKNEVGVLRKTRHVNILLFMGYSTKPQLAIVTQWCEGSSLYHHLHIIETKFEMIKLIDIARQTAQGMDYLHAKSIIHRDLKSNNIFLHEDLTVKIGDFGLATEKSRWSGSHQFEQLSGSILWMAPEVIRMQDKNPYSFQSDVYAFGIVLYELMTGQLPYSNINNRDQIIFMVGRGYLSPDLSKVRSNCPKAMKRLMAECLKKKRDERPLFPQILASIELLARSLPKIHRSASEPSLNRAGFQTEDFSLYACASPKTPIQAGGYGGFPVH
Method: V600E mutant BRAF kinase assay was performed to investigate the activity of […]
Mouse full-length GST-tagged
BRAFV600E (7.5 ng, Invitrogen, PV3849) was pre -incubated with drug (1 µL) and assay dilution buffer (4 µL) for 6 0 min at 25 °C. In assay dilution buffer, a solution (5 µL) containing MgCl2 (30 mM), ATP (200 µM), recombinant human full length (200 ng) […] N-terminal His-tagged MEK1 (Invitrogen) was added to start the assay, after incubation for 25 min at 25 °C. The assay was stopped using 5X protein denaturing buffer (LDS) solution (5 µL). To further denature the protein, heat (70° C) was applied […]
electrophoresis (at 200 V). 10 µL of each reaction was loaded into the precast plates and electrophoresis was allowed to proceed. After completion of electrophoresis, the front part of the precast gel plate (holding hot ATP) was cut and afterwards cast -off.
The dried gel was developed using a phosphor screen. […]
Computerized Prism 5 program was used to statistically analyzed data using one-way ANOVA test followed by Tukey’s as post ANOVA for multiple comparison at P ≤.05.
Data were presented as mean ± SEM.

EGFR [8] = biological target: T2, EGFR (Homo sapiens, UniProt P00533); experiment: EGFR-TK inhibitory assay
T2 sequence (P00533 669-1210): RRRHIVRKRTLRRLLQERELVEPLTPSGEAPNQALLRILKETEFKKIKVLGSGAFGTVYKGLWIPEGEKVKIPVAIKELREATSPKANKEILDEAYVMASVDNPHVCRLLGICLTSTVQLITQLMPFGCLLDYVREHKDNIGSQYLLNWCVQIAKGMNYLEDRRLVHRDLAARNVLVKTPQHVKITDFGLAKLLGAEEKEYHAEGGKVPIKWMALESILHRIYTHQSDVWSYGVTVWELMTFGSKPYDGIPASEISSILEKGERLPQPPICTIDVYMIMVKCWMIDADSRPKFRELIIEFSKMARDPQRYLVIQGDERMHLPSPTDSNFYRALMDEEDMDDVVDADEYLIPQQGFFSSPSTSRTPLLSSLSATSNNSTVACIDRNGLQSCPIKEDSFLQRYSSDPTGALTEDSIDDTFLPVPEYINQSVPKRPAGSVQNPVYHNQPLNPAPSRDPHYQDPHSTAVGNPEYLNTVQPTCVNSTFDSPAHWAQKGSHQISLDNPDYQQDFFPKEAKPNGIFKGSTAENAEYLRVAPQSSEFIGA

EGFR [9] = biological target: T2, EGFR; design: CD, amino acids 645–1186); His6 (N); made in house; host or cells: Sf-9 insect cells (baculovirus; pBlueBacHis2B / pFASTBacHTc; settings: cited from earlier work
BRAF^V600E [10] = settings: cited from earlier work

Row | SMILES | viability at 96 h, 50 µM [1] | IC50 [2] | IC50 [3] | IC50 [4] | IC50 [5] | GI50 [6] | IC50 (BRAF^V600E [7]) | fold less potent than vemurafenib (BRAF^V600E IC50) (BRAF^V600E [7]; relative to vemurafenib IC50 = 30 nM) | IC50 (EGFR [8]) | fold less potent than 3e (GI50) [6] | IC50 (EGFR [9]) | IC50 (BRAF^V600E [10])
1 | CCOC(=O)c1[nH]c2ccc(Cl)cc2c1CNCCc1ccccc1 [Compound 3a, Ethyl 5-chloro-3-((phenethylamino)methyl)-1H-indole-2-carboxylate] | 87% | 33 ± 3 nM | 35 ± 3 nM | 36 ± 3 nM | 36 ± 3 nM | 35 nM | 43 ± 4 nM | 1.4 fold | 85 ± 6 nM | – | – | –
2 | CCOC(=O)c1[nH]c2ccc(Cl)cc2c1CNCCc1ccc(N2CCCCC2)cc1 [Compound 3c, Ethyl 5-chloro-3-((4-(piperidin-1-yl)phenethylamino)methyl)-1H-indole-2-carboxylate] | 89% | 41 ± 4 nM | 45 ± 4 nM | 42 ± 4 nM | 44 ± 4 nM | 42 nM | 67 ± 6 nM | – | 89 ± 6 nM | 1.5 fold | – | –
3 | CCOC(=O)c1[nH]c2ccc(Cl)cc2c1CNCCc1ccc(N2CCCC2C)cc1 (stereo not shown) [Compound 3d, Ethyl 5-chloro-3-((4-(2-methylpyrrolidin-1-yl)phenethylamino)methyl)-1H-indole-2-carboxylate] | 90% | 37 ± 3 nM | 40 ± 4 nM | 38 ± 3 nM | 38 ± 3 nM | 38 nM | 54 ± 5 nM | – | 82 ± 7 nM | 1.3 fold | – | –
4 | O=C(O)c1[nH]c2ccc(Cl)cc2c1CNCCc1ccccc1 [Compound 4a, 5-Chloro-3-((phenethylamino)methyl)-1H-indole-2-carboxylic acid] | 91% | 75 ± 7 nM | 79 ± 7 nM | 78 ± 7 nM | 78 ± 7 nM | 78 nM | – | – | – | – | – | –
5 | O=C(O)c1[nH]c2ccc(Cl)cc2c1CNCCc1ccc(N2CCCC2)cc1 [Compound 4b, 5-Chloro-3-((4-(pyrrolidin-1-yl)phenethylamino)methyl)-1H-indole-2-carboxylic acid] | 89% | 65 ± 6 nM | 69 ± 6 nM | 68 ± 6 nM | 68 ± 6 nM | 68 nM | – | – | – | – | – | –
6 | O=C(O)c1[nH]c2ccc(Cl)cc2c1CNCCc1ccc(N2CCCCC2)cc1 [Compound 4c, 5-Chloro-3-((4-(piperidin-1-yl)phenethylamino)methyl)-1H-indole-2-carboxylic acid] | 87% | 69 ± 7 nM | 73 ± 7 nM | 72 ± 7 nM | 75 ± 7 nM | 72 nM | – | – | – | – | – | –
7 | O=C1c2[nH]c3ccc(Cl)cc3c2CN1CCc1ccccc1 [Compound 5a, 7-Chloro-2-phenethyl-1,2-dihydropyrrolo [3,4-b]indol-3(4H)-one] | 89% | 46 ± 4 nM | 48 ± 5 nM | 50 ± 5 nM | 49 ± 5 nM | 48 nM | – | – | – | – | – | –
8 | O=C1c2[nH]c3ccc(Cl)cc3c2CN1CCc1ccc(N2CCCC2)cc1 [Compound 5b, 7-Chloro-2-(4-(pyrrolidin-1-yl)phenethyl)-1,2-dihydropyrrolo [3,4-b]indol-3(4H)-one] | 89% | 58 ± 5 nM | 61 ± 6 nM | 64 ± 6 nM | 66 ± 6 nM | 62 nM | – | – | – | – | – | –
9 | O=C1c2[nH]c3ccc(Cl)cc3c2CN1CCc1ccc(N2CCCCC2)cc1 [Compound 5c, 7-Chloro-2-(4-(piperidin-1-yl)phenethyl)-1,2-dihydropyrrolo [3,4-b]indol-3(4H)-one] | 91% | 51 ± 5 nM | 53 ± 5 nM | 55 ± 5 nM | 57 ± 5 nM | 54 nM | – | – | – | – | – | –
10 | O=C(NCCc1ccc(N2CCOCC2)cc1)c1[nH]c2ccc(Cl)cc2c1CO [Compound IVc] | – | – | – | – | – | – | – | – | – | – | 120 nM | –
11 | Cc1c2cc(Cl)ccc2n2cc(Cc3ccccc3)[nH]c(=O)c12 [Compound V] | – | – | – | – | – | – | – | – | – | – | – | 100 nM
12 | CCOCc1c2n(c3ccc(Cl)cc13)C(=O)CN(CCc1ccc(N3CCOCC3)cc1)C2=O [VII] | – | – | – | – | – | – | – | – | – | – | 32 nM | 45 nM
